Results on one compound are retold here after patent publication US20140315981A1, “STRATEGIES FOR PREVENTION AND/OR TREATMENT OF DISEASES BASED ON CD40 SILENCING” (FUNDACIO INSTITUT D'INVESTIGACIO BIOMEDICA DE BELLVITGE …, priority 2011, published 2014).

What all share (assay type): in vivo
The test system of assay [1] is NZB/W F1 female mice. Nature of the assay: Survival of NZB/W F1 mice with lupus nephritis under treatment. The conditions noted are these: intraperitoneal treatment from six to nine months of age.
Procedure: Animals NZB/W F1 female mice (Charles River, Spain) were used. […] Mice were housed in a constant temperature room with a 12-hour dark/12-hour light cycle, and were given free access to water and a standard laboratory diet.
(§1) Treatment was given from six to nine old months. Body weight was determined twice a month. Mice were placed in metabolic cages to collect 24-hour urine specimens before treatment, and again at six, seven and eight months. Blood was obtained from the tail vein at the same intervals. At the end of the follow-up, survivor animals were sacrificed and kidney processed for histological studies.
Data are expressed as mean+SE. Overall survival was analyzed by the Kaplan-Meier method. […] All P-values were two-tailed, and a P-value <0.05 was considered significant.
Assay [2] relates to NZB/W F1 female mice. Put plainly: Anti-DNA antibodies in serum by ELISA, murine lupus nephritis. As to conditions: FIG. 2. The protocol:
Urinary protein concentration was determined by a commercial kit based on the Ponceau method (BayerDiagnostics, Madrid, Spain). Serum creatinine levels (in milligrams per decilitre) were determined by Jaffés method on an autoanalyzer (Beckman Instruments, Palo Alto, Calif.) at the end of the follow-up. Anti-DNA antibodies levels of anti-DNA antibodies were measured before treatment, and subsequently each month and at sacrifice, using a commercially available ELISA kit (Alpha Diagnostic International, San Antonio, Tex., USA) according to manufacturer's instructions (serum diluted 1:100). This kit is based on a purified dsDNA coated microwell plate. Antibodies to dsDNA are directed against the phosphate-deoxyribose backbone of the DNA molecule. Anti-dsDNA from serum samples bind to extracted nuclear antigen immobilized on microtiter wells. Anti-mouse IgG-HRP conjugate is added, and the colour developed by chromogenic substrate addition. The enzymatic reaction (blue colour) is directly proportional to the amount of the anti-dsDNA in the sample. Kits contain positive and negative controls, and anti-DNA antibodies are estimated in a semi-quantitative way according to the optical density (o.d. 450).
For orientation: An ELISA detects its analyte on a solid surface through an enzyme-linked reagent.

Assay [3] relates to NZB/W F1 female mice. Nature of the assay: Renal immunofluorescence of glomerular IgG and C3 deposition, murine lupus nephritis. The conditions noted are these: FIG. 7.
Procedure: Renal immunofluorescence. For analysis of Ig and complement deposition, fluorescent staining of cryosections was used. Five-micrometer cryostat sections were fixed in acetone at −80° C. for 20 minutes, then blocked with 20% normal goat serum and directly stained with FITC-conjugated goat anti-mouse IgG at 1/300 (Sigma-Aldrich). To stain for complement, slides were then sequentially incubated in rat anti-mouse complement C3, at 1/50 (Cedarlane Laboratories Limited), followed by Alexa Fluor 546-conjugated goat anti-rat IgG at 1/1000 (Invitrogen, Molecular Probes). At least 30 glomeruli, visualized and photographed with an immunofluorescence microscope, from each animal were examined in a binded manner. A semiquantitative score of staining intensity and distribution from 0 to 4+ was given, where 0+ denotes no signal; 1+, minimal signal; 2+, low signal; 3+, moderate signal and 4+, strong signal intensity.
Assay [4] concerns NZB/W F1 female mice. Nature of the assay: Proteinuria and renal function, murine lupus nephritis. The conditions noted are these: vs. control, FIG. 3.
Procedure: as §1
Assay [5] concerns NZB/W F1 female mice. Put plainly: Spleen weight and splenocyte B cell populations, murine lupus nephritis. As to conditions: FIG. 9.

As for `O=P1(N(CCCl)CCCl)NCCCO1` (centres unmarked) [CYP, cyclophosphamide], in the assay on NZB/W F1 female mice [1], the “Cumulative survival analyzed by the Kaplan-Meier method” value was found to be 100%. The anti-dsDNA titers entry in the assay with NZB/W F1 female mice [2] is reported as “lower”. Also, in the assay on NZB/W F1 female mice [3], the “glomerular deposition of C3” value is “more effective in reducing C3 deposition than costimulatory blockade”. In the assay on NZB/W F1 female mice [4], the proteinuria entry is “significantly lower”. In addition, the “proportion of B cells in splenocytes” value in the assay on NZB/W F1 female mice [5] was “markedly reduced”.
